60 compounds from the METLIN SMRT retention time set (Domingo-Almenara et al. 2019) can be followed below.

A short description of this series: gradient 5% acetonitrile 3 min, to 50% in 2 min, to 85% in 15 min, held 3 min, 100 µL/min. As to conditions: column: Zorbax Extend-C18 2.1 x 50 mm; eluents: water / acetonitrile, 0.1% formic acid. The essentials:
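Pure standards were run in mixtures of ~100 molecules by HPLC coupled to a quadrupole time-of-flight mass spectrometer. The column was a Zorbax Extend-C18 (2.1 × 50 mm, 1.8 μm) at 100 μL/min, with water and acetonitrile each containing 0.1% formic acid, in positive and negative ionization mode. Dead and dwell volumes were 40 μL and 900 μL. Retention time was taken from computationally picked adduct peaks, each manually inspected, with data collected over 3 months.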
In the case of `O=C(c1ccco1)N1CCCCC1c1nc(C2CC2)n[nH]1` (stereo not given), the RP-LC retention time was 625 s. `O=C(c1ccc2c(c1)OCO2)N1CCN(Cc2nnnn2-c2ccc(F)c(F)c2)CC1`: the RP-LC retention time worked out at 746 s. For `O=C(NCc1ccccc1Cl)C1CCc2nc(N3CCOCC3)ncc2C1` (stereo not given) the value was 726 s; for `CCOC(=O)O[C@]1(C(=O)OCCl)CCC2[C@@H]3CCC4=CC(=O)C=C[C@]4(C)C3[C@@H](O)C[C@@]21C` (stereo not given in full), 1110 s. Regarding `CCc1ccc(N2C(=O)c3c(C(=O)OC)ncn3CC2(C)C(=O)NC2CCCC2)cc1` (stereo not given), the RP-LC retention time stood at 615 s. The value for `Cc1oc(-c2[nH]ncc2C(=O)N(C)C)cc1S(=O)(=O)NCc1ccccn1` was 833 s; that for `CN1CCC2(CC1)CN(C(=O)Nc1ccccc1)Cc1ccccc1O2` was 637 s.

Consider `COc1cc2c(cc1Cc1cccc(Cl)c1F)c(=O)c(C(=O)O)cn2[C@H](CO)C(C)C`, for which the RP-LC retention time came to 1090 s.

Take `Cc1ccccc1CNC(=O)c1cn2c(n1)CCCC2`: the RP-LC retention time is 762 s. For `CCC(=O)N1CCN(C(=O)c2ccccc2)CC1` the value was 693 s. As for `CN1C(=O)c2cc(C(=O)NCc3cccc(F)c3)nn2CC1(C)C(=O)NCc1ccc(F)cc1` (stereo not given), the RP-LC retention time is 760 s. `COc1ccc(NC(=O)Cn2c(=O)c(CCC(=O)NCC(C)C)nc3ccccc32)c(OC)c1` yielded an RP-LC retention time of 780 s.

Consider `O=C(Nc1ccc(Cl)cc1)Nc1cccn2ncnc12`, for which the RP-LC retention time was 838 s. The value for `O=C([C@@H]1COCC(=O)N1Cc1ccccc1)N1CCN(Cc2ccc3c(c2)OCO3)CC1` was 606 s; that for `CCOc1ccc(NC(=O)C2(C)Oc3cccnc3NC2=O)cc1` (stereo not given) was 740 s. For `Cc1ccc(-c2cc3c4nnc(SCC(=O)Nc5ccc(Cl)cc5)n4ccn3n2)cc1C` the value was 1080 s; for `COc1ccc(C2CCN(C(=O)Nc3cccc(C(F)(F)F)c3)C2)cc1` (stereo not given), 954 s. `Cc1cc(C)n(-c2ncnc3c2cnn3Cc2ccccc2Cl)n1` showed an RP-LC retention time of 1330 s.

On to `Cc1nc2c(sc3nc(-c4ccccc4)ccc32)c(=O)n1CC(=O)Nc1ccc(C(F)(F)F)cc1`, for which the RP-LC retention time amounted to 1280 s. The value for `O=C(NCCc1csc(C2CCCN(C(=O)C3CC3)C2)n1)C1CCC1` (stereo not given) was 682 s; that for `Cc1cc(S(=O)(=O)N2CC(Cc3nncn3C3CCCC3)C2)ccc1F` was 747 s; that for `O=C(Cn1cccc(-c2nc(-c3ccc(F)cc3)no2)c1=O)Nc1ccc(Cl)cc1` was 950 s. For `CCOC(=O)CCNC(=O)N1CCCCCCN(C)C(=O)CC1` the value was 627 s. `Cc1cc2c(c(=O)n(-c3ccc(F)cc3)c(=O)n2CC(=O)Nc2cc(F)ccc2F)n1C` gave an RP-LC retention time of 875 s.

In turn, `Cc1ccc(-c2csc(Cc3nc(-c4cccc(F)c4)no3)n2)cc1` gave an RP-LC retention time of 1270 s. The value for `CN1C(=O)c2ccccc2Oc2ccc(C(=O)NCc3cccs3)cc21` was 847 s; that for `O=C(NCc1cccs1)c1cnn2c(-c3ccc(Cl)cc3)ccnc12` was 983 s; that for `Cc1cc(SCC(=O)Nc2ccc3c(c2)OCO3)nc(-c2cnccn2)n1` was 680 s. `COc1ccc(-c2ccnn2-c2ccc(SCc3cccc(F)c3)nn2)cc1`: the RP-LC retention time stood at 1300 s. Compound `NC(=O)c1c(NC(=O)C2CCCN(C(=O)c3ccc4c(c3)OCCO4)C2)sc2c1CCCC2` (stereo not given) came in with an RP-LC retention time of 839 s. For `O=C(Cn1cc(S(=O)(=O)c2ccc(F)cc2)c2ccccc21)NC1CC1` the value was 748 s. `COCCOC1CCC12CCN(C(=O)c1occc1C)CC2` (stereo not given): the RP-LC retention time was 779 s. Regarding `CCc1noc(-c2ccnc(-n3cnc(C(=O)NC4CCCCC4)c3)c2)n1`, the RP-LC retention time is 915 s. The compound `CCn1c(C(=O)Nc2cc(C)ccc2C)cc2sc(Cl)cc21` yielded an RP-LC retention time of 1230 s. The value for `CCC(C)OC(=O)C1=C(C)NC(=O)NC1c1ccccc1F` (stereo not given) was 800 s. The value for `CC1CCN(C(=O)c2ccc3c(c2)N(CC(=O)NC(C)C)C(=O)CO3)CC1` was 684 s.

In turn, `Cc1oc2c(c1C(=O)Nc1ccc(F)c(F)c1)C1=NC(C)(C)CN1C=N2` had an RP-LC retention time of 655 s. The compound `O=C1/C(=C/c2ccsc2)CC/C1=C\c1cccs1` registered an RP-LC retention time of 1280 s. For `CCc1nc2c(NC(=O)c3ccc(F)c(Cl)c3)cccn2n1` the value was 924 s. The value for `O=C(NCCc1c[nH]c2ccccc12)c1ccc(N2C(=O)CCS2(=O)=O)cc1` was 728 s; that for `Cc1sc(-c2nc(-c3cccc(F)c3)no2)cc1S(=O)(=O)N1CCN(c2ccccn2)CC1` was 959 s. The value for `CCc1nc2cc(-c3noc(-c4ccc5cc[nH]c5c4)n3)ccc2o1` was 1110 s; that for `CC(C)NC(=O)c1ccc(OCC2CCCN(C(=O)c3cccc(Cl)c3)C2)cc1` (stereo not given) was 899 s; that for `COc1ccc(N2CCN(C(=O)C3CCN(S(=O)(=O)c4cn(C)c(C)n4)CC3)CC2)cc1` was 651 s.

With `COCCNc1c(-c2cccc(C)c2)nc2sc(C(=O)NC3CC3)c(C)n12`, the RP-LC retention time amounted to 602 s.

In turn, `Cc1ccc(C)c(N2CCN(c3ccnc(SCC(=O)Nc4ccc(F)c(Cl)c4)n3)CC2)c1` gave an RP-LC retention time of 997 s. For `CCOc1cc(=O)n2c(c1C(=O)N1CCCc3ccccc31)CCCC2` the value was 707 s; for `O=C(Nc1ccccc1Cl)N1CC(F)(F)C[C@H]1CN1CCCC1`, 627 s; for `Cn1nc2n(c1=O)CCN(C(=O)C1CC=CCC1)CC2` (stereo not given), 624 s.

On to `CCCNC(=O)C1CCCN(S(=O)(=O)c2cc(-c3noc(CC)n3)cs2)C1` (stereo not given), for which the RP-LC retention time turned out to be 841 s.

As for `CS(=O)(=O)N1CCc2ccc(C(=O)NCCN3CCC(N4CCCCC4)CC3)cc21`, the RP-LC retention time stood at 583 s. Consider `CCN1C(=O)COc2ccc(-c3csc(NC(C)=O)n3)cc21`, for which the RP-LC retention time was 719 s.

`CCOc1ccccc1NC(=O)c1ccccc1[N+](=O)[O-]` returned an RP-LC retention time of 823 s. The value for `O=C(c1cc2ccccc2[nH]1)N1CCN2CCS(=O)(=O)N(C3CC3)C(=O)C2C1` (stereo not given) was 780 s; that for `CC(=O)N1c2ccc(S(=O)(=O)N3CCCCCC3)cc2CC1C(=O)NCCCc1ccccc1` (stereo not given) was 975 s; that for `COc1cc(NC(=O)N2CCOc3ccc(Cl)cc32)cc(OC)c1OC` was 899 s. With `CCCCCNC(=O)C1CCN(c2cc(Sc3cc(C)ccc3C)ncn2)CC1`, the RP-LC retention time came to 951 s. Compound `Cc1ccc(-n2nnnc2CN2CCN(C(=O)CSc3nnnn3C)CC2)cc1` yielded an RP-LC retention time of 664 s. For `COC(=O)c1cccc(C(=O)Nc2ccc(F)cc2Cl)n1` the value was 993 s; for `CC(C)c1noc(C2CCCN(S(=O)(=O)c3cn(C)cn3)CCC(=O)NCC2)n1` (stereo not given), 640 s.
